Results reported in patent publication US20230381503A1, “Compositions And Methods For Treating With A Combination Of Alternating Electric Fields And Ion Channel Inhibitors” (NOVOCURE GMBH, priority 2022, published 2023).

Columns and labels:
[1] = test system: pGBM cell lines (SF188 and KNS42); assay: Cell count of pGBM cell lines with and without IAA94; assay type: cell-based, human; conditions: 100 uM IAA94, FIG. 3
Text: (§1) The cell count in different cell lines (SF188 and KNS42) with and without IAA94.
(§2) Similar efficacy was observed when using TTFields as a treatment for pGBM (FIG. 4).

pGBM = assay: Invasion / migration capacity of pGBM with IAA94; assay type: cell-based, human; conditions: FIG. 3
Text: as §1, §2

GCE62, SF188 and KNS42 = assay: Cell proliferation of three cell lines treated with TTFields and IAA94; assay type: cell-based, human; conditions: TTFields and IAA94 compared to TTFields alone, FIG. 6
[2] = test system: human glioblastoma primary culture; assay: Cell number after TTFields plus CLIC1 inhibitor IAA94; assay type: cell-based; conditions: TTFields plus IAA94 vs TTFields alone or IAA94 alone, FIG. 12
Text: Thus, the combination therapy is a very effective treatment.

## CC1(C2CCCC2)Cc2cc(OCC(=O)O)c(Cl)c(Cl)c2C1=O (centres unmarked) [IAA94]
[1]
  overall cell count: reduces overall cell count
pGBM; 100 uM IAA94, pGBM
  invasive capacity: reduces invasive capacity
pGBM; inhibition of CLIC1 and CLIC4 by IAA94
  capacity of pGBM to proliferate, invade and migrate: reduced the capacity of pGBM to proliferate, invade and migrate
GCE62, SF188 and KNS42
  cell proliferation, combination with TTFields: significantly reduced cell proliferation compared to TTFields alone
[2]
  cell number, combination with TTFields: inhibits cell proliferation and/or kills more cells that TTFields alone or IAA94 alone
